Assay results as given in patent US20070004660A1, “Synergistic Modulation of Flt3 Kinase Using Alkylquinolines and Alkylquinazolines” (priority 2005, published 2007).
Where a name gives a salt, the structure may show the parent alone.

test system: MV4-11 cells; assay: Inhibition of MV4-11 cell proliferation (CellTiterGlo, 72 h); assay type: cell-based; settings: Homo sapiens; 72 h growth inhibition; uncertainty ±20%

Row | IC50 | Compound
1 | 11 nM | O=C(Nc1ccc(N2CCCC2)cc1)N1CCC(c2ncnc3cc(N4CCNC4=O)ccc23)CC1 [Compound 178, 4-[7-(2-Oxo-imidazolidin-1-yl)-quinazolin-4-yl]-piperidine-1-carboxylic acid (4-pyrrolidin-1-yl-phenyl)-amide]
2 | 34 nM | O=C(Nc1ccc(N2CCCC2)cc1)N1CCC(c2ncnc3cc(N4CCCC4)ccc23)CC1 [Compound 179, 4-(7-Pyrrolidin-1-yl-quinazolin-4-yl)-piperidine-1-carboxylic acid (4-pyrrolidin-1-yl-phenyl)-amide]
3 | 9 nM | O=C(Nc1ccc(N2CCCC2)cc1)N1CCC(c2ncnc3cc(N4CCOCC4)ccc23)CC1 [Compound 181, 4-(7-Morpholin-4-yl-quinazolin-4-yl)-piperidine-1-carboxylic acid (4-pyrrolidin-1-yl-phenyl)-amide]
4 | 107 nM | O=C(Nc1ccc(N2CCCC2)cc1)N1CCC(c2ncnc3cc(N4CCSCC4)ccc23)CC1 [Compound 182, 4-(7-Thiomorpholin-4-yl-quinazolin-4-yl)-piperidine-1-carboxylic acid (4-pyrrolidin-1-yl-phenyl)-amide]
5 | 18 nM | O=C1CN(c2ccc3c(C4CCN(C(=O)Nc5ccc(N6CCCC6)cc5)CC4)ncnc3c2)CCN1 [Compound 183, 4-[7-(3-Oxo-piperazin-1-yl)-quinazolin-4-yl]-piperidine-1-carboxylic acid (4-pyrrolidin-1-yl-phenyl)-amide]
6 | 58 nM | CN1CCN(c2ccc3c(C4CCN(C(=O)Nc5ccc(N6CCCC6)cc5)CC4)ncnc3c2)CC1=O [Compound 184, 4-[7-(4-Methyl-3-oxo-piperazin-1-yl)-quinazolin-4-yl]-piperidine-1-carboxylic acid (4-pyrrolidin-1-yl-phenyl)-amide]
7 | 67 nM | O=C(Nc1ccc(N2CCCC2)cc1)N1CCC(c2ncnc3cc(OCC4CCOCC4)ccc23)CC1 [Compound 188, 4-[7-(Tetrahydro-pyran-4-ylmethoxy)-quinazolin-4-yl]-piperidine-1-carboxylic acid (4-pyrrolidin-1-yl-phenyl)-amide]
8 | 13 nM | O=C(Nc1ccc(N2CCCC2)cc1)N1CCC(c2ncnc3cc(N4CCN(c5ccccn5)CC4)ccc23)CC1 [Compound 192, 4-[7-(4-Pyridin-2-yl-piperazin-1-yl)-quinazolin-4-yl]-piperidine-1-carboxylic acid (4-pyrrolidin-1-yl-phenyl)-amide]
9 | 16 nM | O=C(Nc1ccc(N2CCCC2)cc1)N1CCC(c2ncnc3cc(N4CCN(c5ncccn5)CC4)ccc23)CC1 [Compound 193, 4-[7-(4-Pyrimidin-2-yl-piperazin-1-yl)-quinazolin-4-yl]-piperidine-1-carboxylic acid (4-pyrrolidin-1-yl-phenyl)-amide]
10 | 75 nM | O=C(Nc1ccc(N2CCOCC2)cc1)N1CCC(c2ncnc3cc(N4CCC(F)CC4)ccc23)CC1 [Compound 196, 4-[7-(4-Fluoro-piperidin-1-yl)-quinazolin-4-yl]-piperidine-1-carboxylic acid (4-morpholin-4-yl-phenyl)-amide]
11 | 143 nM | O=C(Nc1ccc(N2CCOCC2)cc1)N1CCC(c2ncnc3cc(N4CCNC4=O)ccc23)CC1 [Compound 197, 4-[7-(2-Oxo-imidazolidin-1-yl)-quinazolin-4-yl]-piperidine-1-carboxylic acid (4-morpholin-4-yl-phenyl)-amide]
12 | 3 nM | CCNC(=O)N1CCN(c2ccc3c(C4CCN(C(=O)Nc5ccc(N6CCCC6)cc5)CC4)ncnc3c2)CC1 [Compound 199, 4-{4-[1-(4-Pyrrolidin-1-yl-phenylcarbamoyl)-piperidin-4-yl]-quinazolin-7-yl}-piperazine-1-carboxylic acid ethylamide]
13 | 16 nM | O=C(CO)N1CCN(c2ccc3c(C4CCN(C(=O)Nc5ccc(N6CCCC6)cc5)CC4)ncnc3c2)CC1 [Compound 201, 4-{7-[4-(2-Hydroxy-acetyl)-piperazin-1-yl]-quinazolin-7-yl}-piperidine-1-carboxylic acid (4-pyrrolidin-1-yl-phenyl)-amide]
14 | 30 nM | CC(C)Oc1ccc(NC(=O)N2CCC(c3ncnc4ccc(C#CCN5CCOCC5)cc34)CC2)cc1 [Example 15, 4-[6-(3-Morpholin-4-yl-prop-1-ynyl)-quinazolin-4-yl]-piperidine-1-carboxylic acid (4-isopropoxy-phenyl)-amide]
15 | 559 nM | CC(C)c1ccc(NC(=O)CN2CCC(c3ncnc4ccccc34)CC2)cc1 [Example 16, N-(4-Isopropyl-phenyl)-2-(4-quinazolin-4-yl-piperidin-1-yl)-acetamide]
16 | 27 nM | COc1cc2ncnc(C3CCN(C(=O)Nc4ccc(C5CCCCC5)cc4)CC3)c2cc1OC [Example 21, 4-(6,7-Dimethoxy-quinazolin-4-yl)-piperidine-1-carboxylic acid (4-cyclohexyl-phenyl)-amide]
17 | > 10000 nM | COc1cc2ncnc(C3CCN(C(=O)Nc4ccc(CO)cc4)CC3)c2cc1OC [Example 22, 4-(6,7-Dimethoxy-quinazolin-4-yl)-piperidine-1-carboxylic acid (4-hydroxymethyl-phenyl)-amide]
18 | 2700 nM | COc1cc2ncnc(C3CCN(C(=O)Nc4ccc5[nH]ccc5c4)CC3)c2cc1OC [Example 23, 4-(6,7-Dimethoxy-quinazolin-4-yl)-piperidine-1-carboxylic acid (1H-indol-5-yl)-amide]
19 | 3700 nM | COc1cc2ncnc(C3CCN(C(=O)Nc4ccc5ncsc5c4)CC3)c2cc1OC [Example 24, 4-(6,7-Dimethoxy-quinazolin-4-yl)-piperidine-1-carboxylic acid benzothiazol-6-ylamide]

More lines, now with the values behind:

Row | Compound | IC50
20 | O=C(Nc1ccc(N2CCCC2)cc1)N1CCC(c2ncnc3cc(-n4ccnc4)ccc23)CC1 [Compound 180, 4-(7-Imidazol-1-yl-quinazolin-4-yl)-piperidine-1-carboxylic acid (4-pyrrolidin-1-yl-phenyl)-amide] | 20 nM
21 | O=C(Nc1ccc(N2CCCC2)cc1)N1CCC(c2ncnc3cc(N4CCN(CCO)CC4)ccc23)CC1 [Compound 185, 4-{7-[4-(2-Hydroxy-ethyl)-piperazin-1-yl]-quinazolin-4-yl}-piperidine-1-carboxylic acid (4-pyrrolidin-1-yl-phenyl)-amide] | 6 nM
22 | COCCN1CCN(c2ccc3c(C4CCN(C(=O)Nc5ccc(N6CCCC6)cc5)CC4)ncnc3c2)CC1 [Compound 186, 4-{7-[4-(2-Methoxy-ethyl)-piperazin-1-yl]-quinazolin-4-yl}-piperidine-1-carboxylic acid (4-pyrrolidin-1-yl-phenyl)-amide] | 15 nM
23 | CCN1CCN(c2ccc3c(C4CCN(C(=O)Nc5ccc(N6CCCC6)cc5)CC4)ncnc3c2)CC1 [Compound 187, 4-[7-(4-Ethyl-piperazin-1-yl)-quinazolin-4-yl]-piperidine-1-carboxylic acid (4-pyrrolidin-1-yl-phenyl)-amide] | 21 nM
24 | O=C(Nc1ccc(N2CCCC2)cc1)N1CCC(c2ncnc3cc(OC4CCOCC4)ccc23)CC1 [Compound 189, 4-[7-(Tetrahydro-pyran-4-yloxy)-quinazolin-4-yl]-piperidine-1-carboxylic acid (4-pyrrolidin-1-yl-phenyl)-amide] | 286 nM
25 | O=C(Nc1ccc(N2CCCC2)cc1)N1CCC(c2ncnc3cc(O[C@H]4CCOC4)ccc23)CC1 [Compound 190, (S)-4-[7-(Tetrahydro-furan-3-yloxy)-quinazolin-4-yl]-piperidine-1-carboxylic acid (4-pyrrolidin-1-yl-phenyl)-amide] | 88 nM
26 | O=C(Nc1ccc(N2CCCC2)cc1)N1CCC(c2ncnc3cc(O[C@@H]4CCOC4)ccc23)CC1 [Compound 191, (R)-4-[7-(Tetrahydro-furan-3-yloxy)-quinazolin-4-yl]-piperidine-1-carboxylic acid (4-pyrrolidin-1-yl-phenyl)-amide] | 71 nM
27 | O=C(Nc1ccc(N2CCCC2)cc1)N1CCC(c2ncnc3cc(N4CCN(c5ccncc5)CC4)ccc23)CC1 [Compound 194, 4-[7-(4-Pyridin-4-yl-piperazin-1-yl)-quinazolin-4-yl]-piperidine-1-carboxylic acid (4-pyrrolidin-1-yl-phenyl)-amide] | 0.4 nM
28 | O=C(Nc1ccc(N2CCCC2)cc1)N1CCC(c2ncnc3cc(N4CCC(F)CC4)ccc23)CC1 [Compound 195, 4-[7-(4-Fluoro-piperidin-1-yl)-quinazolin-4-yl]-piperidine-1-carboxylic acid (4-pyrrolidin-1-yl-phenyl)-amide] | 17 nM
29 | CN1CCN(CCOc2ccc3c(C4CCN(C(=O)Nc5ccc(N6CCCC6)cc5)CC4)ncnc3c2)CC1=O [Compound 202, 4-{7-[2-(4-Methyl-3-oxo-piperazin-1-yl)-ethoxy]-quinazolin-4-yl}-piperidine-1-carboxylic acid (4-pyrrolidin-1-yl-phenyl)-amide] | 74 nM
30 | CN1CCN(CCCOc2cc3ncnc(C4CCN(C(=O)Nc5ccc(N6CCOCC6)cc5)CC4)c3cc2F)CC1 [Compound 205, 4-{6-Fluoro-7-[3-(4-methyl-piperazin-1-yl)-propoxy]-quinazolin-4-yl}-piperidine-1-carboxylic acid (4-morpholin-4-yl-phenyl)-amide] | 78 nM
31 | COc1cc2ncnc(C3CCN(C(=O)Nc4ccc(OC(C)C)cc4)CC3)c2cc1OC [Example 1, 4-(6,7-Dimethoxy-quinazolin-4-yl)-piperidine-1-carboxylic acid (4-isopropoxy-phenyl)-amide hydrochloride] | 88 nM
32 | COc1cc2ncnc(C3CCN(C(=O)Nc4ccc(OC5CCC5)nc4)CC3)c2cc1OC [Example 17, 4-(6,7-Dimethoxy-quinazolin-4-yl)-piperidine-1-carboxylic acid (6-cyclobutoxy-pyridin-3-yl)-amide] | 31 nM
33 | COc1cc2ncnc(C3CCN(C(=O)Nc4ccc(N5CCOCC5)cc4)CC3)c2cc1OC [Example 18, 4-(6,7-Dimethoxy-quinazolin-4-yl)-piperidine-1-carboxylic acid (4-morpholin-4-yl-phenyl)-amide] | 137 nM
34 | COc1cc2ncnc(C3CCN(C(=O)Nc4ccc(N5CCCCC5)cc4)CC3)c2cc1OC [Example 19, 4-(6,7-Dimethoxy-quinazolin-4-yl)-piperidine-1-carboxylic acid (4-piperidin-1-yl-phenyl)-amide] | 10 nM
